# How the values were obtained:
# [1] = test system: conditioned avoidance reflex (CAR); experiment: Shuttle-box, acquisition of two-way conditioned avoidance reflex (CAR); type: in vivo
# Experimental: The acquisition of a two-way conditioned avoidance reflex (CAR) was analyzed in the shuttle-box during 5 consecutive days.
# The instrument was constructed by the Research Institute for Electrical Industry (Hungary). It consists of six boxes, each is separated inside by a barrier with a small gate in the middle. […] They were given 100 trials per day. One trial consisted of 15 s intertrial interval, followed by 15 s CS. The last 5 s of CS overlapped the […]. At each learning session the number of CAR and intersignal reactions (IR) was automatically counted and evaluated by multiway analysis of variance (ANOVA).
# [2] = test system: Benzodiazepine (BZD) receptor; experiment: Benzodiazepine (BZD) receptor binding, displacement of 3H-diazepam; conditions: crude cortical membrane, 1 hr at 0° C., pH 6.8; control drug
# Experimental: 10. For the Studies of Benzodiazepine (BZD) Receptor Binding crude cortical membrane preparation was used. 2/ μM ^3 H-diazepam was incubated with the membrane for 1 hr at 0° C. in TRIS-citrate buffer, pH 6.8. Specific binding was determined in the presence of 10/ μM diazepam. In displacement studies chlordiazepoxid was used as control drug.
# [3] = test system: conditioned reflex (CR) / unconditioned reflex (UR); experiment: Screening test, learning and retention during one session conditioning; type: in vivo, rats
# Experimental: I was elaborated for studing learning and retention of rats during one session conditioning.
# During conditioning rats are trained to jump onto the top of glass cylinder by the electric foot-shock (110 V). The escape reaction (unconditioned reflex, UR) is paired with a bell as conditioned stimulus. The criterion of learning is that conditioned reflex (CR) should be elicited 10 times with 10 s intervals without reinforcement. Retention of CR is taken positive when 24 h following the experiment CR can be elicited. In these experiments animals are distributed into 4 categories on the basis of their learning ability.
# pain reactions = experiment: Hot plate test; type: in vivo, rats; conditions: Rattus norvegicus, 56° C. plate, 1 h after administration
# Experimental: The method of Woolfe and McDonald (1944) modified by Porszasz and Herr (1950) was used. The effect of each dose of the drugs was checked on a group of 10 rats. The experiments were performed on metal plates maintained at 56° C. The latency time of pain reactions was determined prior to and 1 h after the administration of the test compound. It was regarded as 100% effect if the reaction time was prolonged by more than 2.5 times the control value.
# writhing = experiment: Writhing test (peritoneal), acetic acid; type: in vivo; conditions: Mus musculus, mice, acetic acid i.p.
# Experimental: The method originally described by […] (1956) for rats modified by Witkin et al. (1961) and Koster and Anderson (1959), respectively, for mice was applied. Each dose was administered to a group of ten mice and after 20 min. 60 mg/kg of 0.6% acetic acid solution was injected i.p. As a result of chemical irritation of the peritoneum a characteristic writhing can be observed in 90% of control animals. Ten animals treated with compounds under test were kept under observation for 20 min. following i.p. injection of acid. The analgetic effect of individual doses was expressed in per cent: [formula] The denominator was taken as 90% on the basis of preliminary control examination and the […] literature.
# [4] = Acute toxicity (Litchfield and Wilcoxon); conditions: rat, in vivo, deaths within 48 h
structure (smiles),measurement,setting,value
CNC1=Nc2ccc(Cl)cc2C(c2ccccc2)=[N+]([O-])C1 [Chlordiazepoxide],number of negative responses (f),"[1]; 10 mg/kg, in words",increased
same,acquisition of conditioned reflex,[1]; 10 and 5 mg/kg,unchanged
same,intersignal reactions (IR),"[1]; 10 and 5 mg/kg, in words",unchanged
same,intersignal reactions (IR),"[1]; s.c., 5 mg/kg, day 1",10.8
same,negative responses (-f),"[1]; s.c., 5 mg/kg, day 1",11.8
same,"positive responses (F), acquisition of conditioned reflex","[1]; s.c., 5 mg/kg, day 1",23.1
same,intersignal reactions (IR),"[1]; s.c., 5 mg/kg, day 2",14.0
same,negative responses (-f),"[1]; s.c., 5 mg/kg, day 2",9.1
same,"positive responses (F), acquisition of conditioned reflex","[1]; s.c., 5 mg/kg, day 2",38.7
same,intersignal reactions (IR),"[1]; s.c., 5 mg/kg, day 3",8.9
same,negative responses (-f),"[1]; s.c., 5 mg/kg, day 3",10.2
same,"positive responses (F), acquisition of conditioned reflex","[1]; s.c., 5 mg/kg, day 3",35.6
same,intersignal reactions (IR),"[1]; s.c., 5 mg/kg, day 4",6.7
same,negative responses (-f),"[1]; s.c., 5 mg/kg, day 4",14.9
same,"positive responses (F), acquisition of conditioned reflex","[1]; s.c., 5 mg/kg, day 4",41.1
same,intersignal reactions (IR),"[1]; s.c., 5 mg/kg, day 5",4.2
same,negative responses (-f),"[1]; s.c., 5 mg/kg, day 5",13.0
same,"positive responses (F), acquisition of conditioned reflex","[1]; s.c., 5 mg/kg, day 5",50.8
same,intersignal reactions (IR),"[1]; s.c., 10 mg/kg, day 1",10.8
same,negative responses (-f),"[1]; s.c., 10 mg/kg, day 1",32.7
same,"positive responses (F), acquisition of conditioned reflex","[1]; s.c., 10 mg/kg, day 1",19.9
same,intersignal reactions (IR),"[1]; s.c., 10 mg/kg, day 2",14.7
same,negative responses (-f),"[1]; s.c., 10 mg/kg, day 2",22.8
same,"positive responses (F), acquisition of conditioned reflex","[1]; s.c., 10 mg/kg, day 2",37.9
same,intersignal reactions (IR),"[1]; s.c., 10 mg/kg, day 3",8.1
same,negative responses (-f),"[1]; s.c., 10 mg/kg, day 3",31.8
same,"positive responses (F), acquisition of conditioned reflex","[1]; s.c., 10 mg/kg, day 3",33.7
same,intersignal reactions (IR),"[1]; s.c., 10 mg/kg, day 4",6.3
same,negative responses (-f),"[1]; s.c., 10 mg/kg, day 4",36.5
same,"positive responses (F), acquisition of conditioned reflex","[1]; s.c., 10 mg/kg, day 4",35.6
same,intersignal reactions (IR),"[1]; s.c., 10 mg/kg, day 5",6.1
same,negative responses (-f),"[1]; s.c., 10 mg/kg, day 5",40.8
same,"positive responses (F), acquisition of conditioned reflex","[1]; s.c., 10 mg/kg, day 5",41.2
same,intersignal reactions (IR),"[1]; s.c., 25 mg/kg, day 1",6.8
same,negative responses (-f),"[1]; s.c., 25 mg/kg, day 1",74.0
same,"positive responses (F), acquisition of conditioned reflex","[1]; s.c., 25 mg/kg, day 1",9.7
same,intersignal reactions (IR),"[1]; s.c., 25 mg/kg, day 2",7.3
same,negative responses (-f),"[1]; s.c., 25 mg/kg, day 2",67.5
same,"positive responses (F), acquisition of conditioned reflex","[1]; s.c., 25 mg/kg, day 2",12.2
same,intersignal reactions (IR),"[1]; s.c., 25 mg/kg, day 3",6.2
same,negative responses (-f),"[1]; s.c., 25 mg/kg, day 3",67.0
same,"positive responses (F), acquisition of conditioned reflex","[1]; s.c., 25 mg/kg, day 3",17.9
same,intersignal reactions (IR),"[1]; s.c., 25 mg/kg, day 4",8.2
same,negative responses (-f),"[1]; s.c., 25 mg/kg, day 4",65.6
same,"positive responses (F), acquisition of conditioned reflex","[1]; s.c., 25 mg/kg, day 4",20.0
same,intersignal reactions (IR),"[1]; s.c., 25 mg/kg, day 5",6.0
same,negative responses (-f),"[1]; s.c., 25 mg/kg, day 5",59.8
same,"positive responses (F), acquisition of conditioned reflex","[1]; s.c., 25 mg/kg, day 5",21.4
same,displacement of 3H-diazepam on the receptor,[2],displaced ^3 H-diazepam on the receptor in concentration dependent manner
same,inhibition of development of conditioned reflex,[3]; 10 mg/kg,does not influence
"c1ccc2c(c1)ncc1ncsc12 [Thiazolo[4,5-c]quinoline-ethanesulfonate, thiazolo[4,5-c]quinoline-ethanesulfonate]",ED50,pain reactions; po,72 mg/kg
same,ED50,pain reactions; sc,8 mg/kg
same,intersignal reactions (IR),"[1]; s.c., 10 mg/kg, day 1",6.5
same,negative responses (-f),"[1]; s.c., 10 mg/kg, day 1",17.2
same,"positive responses (F), acquisition of conditioned reflex","[1]; s.c., 10 mg/kg, day 1",23.5
same,intersignal reactions (IR),"[1]; s.c., 10 mg/kg, day 2",8.8
same,negative responses (-f),"[1]; s.c., 10 mg/kg, day 2",7.1
same,"positive responses (F), acquisition of conditioned reflex","[1]; s.c., 10 mg/kg, day 2",44.2
same,intersignal reactions (IR),"[1]; s.c., 10 mg/kg, day 3",5.5
same,negative responses (-f),"[1]; s.c., 10 mg/kg, day 3",2.4
same,"positive responses (F), acquisition of conditioned reflex","[1]; s.c., 10 mg/kg, day 3",51.6
same,intersignal reactions (IR),"[1]; s.c., 10 mg/kg, day 4",8.2
same,negative responses (-f),"[1]; s.c., 10 mg/kg, day 4",1.2
same,"positive responses (F), acquisition of conditioned reflex","[1]; s.c., 10 mg/kg, day 4",66.8
same,intersignal reactions (IR),"[1]; s.c., 10 mg/kg, day 5",6.3
same,negative responses (-f),"[1]; s.c., 10 mg/kg, day 5",6.2
same,"positive responses (F), acquisition of conditioned reflex","[1]; s.c., 10 mg/kg, day 5",65.1
same,intersignal reactions (IR),"[1]; s.c., 25 mg/kg, day 1",11.1
same,negative responses (-f),"[1]; s.c., 25 mg/kg, day 1",70.3
same,"positive responses (F), acquisition of conditioned reflex","[1]; s.c., 25 mg/kg, day 1",8.1
same,intersignal reactions (IR),"[1]; s.c., 25 mg/kg, day 2",8.8
same,negative responses (-f),"[1]; s.c., 25 mg/kg, day 2",41.8
same,"positive responses (F), acquisition of conditioned reflex","[1]; s.c., 25 mg/kg, day 2",25.3
same,intersignal reactions (IR),"[1]; s.c., 25 mg/kg, day 3",7.0
same,negative responses (-f),"[1]; s.c., 25 mg/kg, day 3",40.4
same,"positive responses (F), acquisition of conditioned reflex","[1]; s.c., 25 mg/kg, day 3",23.3
same,intersignal reactions (IR),"[1]; s.c., 25 mg/kg, day 4",10.3
same,negative responses (-f),"[1]; s.c., 25 mg/kg, day 4",46.3
same,"positive responses (F), acquisition of conditioned reflex","[1]; s.c., 25 mg/kg, day 4",30.8
same,intersignal reactions (IR),"[1]; s.c., 25 mg/kg, day 5",4.0
same,negative responses (-f),"[1]; s.c., 25 mg/kg, day 5",61.3
same,"positive responses (F), acquisition of conditioned reflex","[1]; s.c., 25 mg/kg, day 5",15.5
same,intersignal reactions (IR),"[1]; s.c., 50 mg/kg, day 1",9.2
same,negative responses (-f),"[1]; s.c., 50 mg/kg, day 1",66.8
same,"positive responses (F), acquisition of conditioned reflex","[1]; s.c., 50 mg/kg, day 1",8.9
same,intersignal reactions (IR),"[1]; s.c., 50 mg/kg, day 2",7.1
same,negative responses (-f),"[1]; s.c., 50 mg/kg, day 2",35.2
same,"positive responses (F), acquisition of conditioned reflex","[1]; s.c., 50 mg/kg, day 2",24.5
same,intersignal reactions (IR),"[1]; s.c., 50 mg/kg, day 3",4.2
same,negative responses (-f),"[1]; s.c., 50 mg/kg, day 3",51.5
same,"positive responses (F), acquisition of conditioned reflex","[1]; s.c., 50 mg/kg, day 3",20.8
same,intersignal reactions (IR),"[1]; s.c., 50 mg/kg, day 4",3.3
same,negative responses (-f),"[1]; s.c., 50 mg/kg, day 4",61.8
same,"positive responses (F), acquisition of conditioned reflex","[1]; s.c., 50 mg/kg, day 4",14.6
same,intersignal reactions (IR),"[1]; s.c., 50 mg/kg, day 5",2.6
same,negative responses (-f),"[1]; s.c., 50 mg/kg, day 5",72.8
same,"positive responses (F), acquisition of conditioned reflex","[1]; s.c., 50 mg/kg, day 5",16.2
same,ED50,writhing; po,70 mg/kg
same,ED50,writhing; sc,56 mg/kg
same,LD50 at 48 h,[4]; iv,51 mg/kg
same,LD50 at 48 h,"[4]; po, starved 16 h",290 mg/kg
same,LD50 at 48 h,[4]; sc,280 mg/kg
"Cl.c1ccc2c(c1)ncc1ncsc12 [Thiazolo[4,5-c]quinoline-hydrochloride, thiazolo[4,5-c]quinoline-hydrochloride]",ED50,pain reactions; po,60 mg/kg
same,ED50,pain reactions; sc,7.5 mg/kg
same,ED50,writhing; po,82 mg/kg
same,ED50,writhing; sc,32 mg/kg
same,LD50 at 48 h,[4]; iv,55 mg/kg
same,LD50 at 48 h,"[4]; po, starved 16 h",350 mg/kg
same,LD50 at 48 h,[4]; sc,260 mg/kg
same,inhibition of development of conditioned reflex,[3]; 10 mg/kg,strong inhibition
same,inhibition of development of conditioned reflex,[3]; 25 mg/kg,complete inhibition
"O=C(CCCN1CCC(O)(c2ccc(Cl)cc2)CC1)c1ccc(F)cc1 [haloperidol, reference compound]",inhibition of developing conditioned reflex,[3]; 0.025 mg/kg,strong inhibition

# — US4904669A, “Thiazolo/4,5-c/quinolines as major tranquilizers” (EGIS Gyogyszergyar, priority 1985, dated 1990)
